Data: patent US10617749B1, “Composition of matter and methods for alteration of dendritic cell metabolism to augment cancer vaccine efficacy” (Duke University, priority 2016, dated 2020)
“Also recorded” adds a separate entry of the source.

What was measured:
[1] = test system: bone marrow-derived DCs (BMDCs); experiment: DC oxygen consumption rate (OCR) / OXPHOS, extracellular flux analysis; assay type: cell-based, murine; settings: murine DCs pre-treated with Wnt5a vs Wnt5a+ETO
Procedure: (§1) DC energy metabolism was measured using the XF^e24 extracellular flux analyzer (Seahorse Bioscience), with the glycolysis stress test kit and the mitochondrial stress test kit as previously described (Everts et al., 2014; Zhao and Klimecki, 2015).
(§2) Murine bone marrow-derived DCs (BMDCs) were harvested and differentiated as previously described and purified using CD11c microbeads (Miltenyi Biotec) according to manufacturer's protocol. DC purity was monitored by flow cytometry and consistently found to be >95% CD11c+F4/80-. BRAFV600EPTEN−/−-Wnt5aKD and BRAFV600EPTEN−/−-NTC cell lines were generated and cultured as previously described. DC2.4, a murine dendritic cell line was kindly provided by Dr. Kenneth L. Rock (University of Massachusetts Medical School), and cultured as previously described. DC2.4β-cateninKD, DC2.4-CPT1AKD, and DC2.4-NTC stable cell lines were generated using a β-catenin-targeted, CPT1A-targeted, or control shRNA-expressing lentivirus followed by puromycin selection. DCs were treated with Wnt3a (100 ng/mL), Wnt5a (200 ng/mL), LPS (1 μg/mL), 1-MT, 2DG (1 mM), or ETO (100 µM) vs vehicle control either for 24 or 48 hrs prior to their use in both in vitro and in vivo experiments.

[2] = test system: human monocyte-derived DCs; experiment: OCR analysis of human monocyte-derived DCs; assay type: cell-based; settings: human DCs pre-treated with Wnt5a 48 hours, short-term ETO
Procedure: Human DCs were differentiated from harvested peripheral blood mononuclear cells and pre-treated with Wnt5a 48 hours prior to OCR analysis. Short-term incubation with ETO was performed prior to analysis.
as §1
Human Monocyte-derived Dendritic Cells were generated as previously described.

BMDCs = experiment: DC viability, Annexin V/PI flow cytometry; assay type: cell-based, murine; settings: BMDCs treated 48 hours
From the text: Data is representative of two-independent experiments.

[3] = test system: DC-induced CD4+ FoxP3+ Tregs; experiment: In vitro Treg assay; assay type: cell-based, mouse
Procedure: (§3) In vivo Treg assay. DCs (C57, H-2^b) were pre-treated for 48 hours and delivered by intradermal injection into the footpad of Foxp3-mRFP mice. Draining inguinal and popliteal lymph nodes were resected 5 days later and analyzed for CD4^+ Foxp3^+ Tregs. In vitro Treg assay, DCs (Balb/c, H-2^d) were pre-treated for either 24 or 48 hrs, and re-plated at a 1:3 DC:T-cell ratio with purified naïve Foxp3-mRFP(H-2^b) CD4^+ Tcells. These co-cultures were incubated for 6 days and quantitated for CD4^+ FoxP3^+ Tregs by flow cytometry.
as §2

[4] = test system: DC-induced CD4+ Foxp3+ Tregs in draining lymph nodes; experiment: In vivo Treg assay; settings: conditioned primary DCs transferred into footpad of FoxP3-mRFP reporter mice
Procedure: as §3

OT-1 CD8+ T cells = experiment: T cell proliferation assay; assay type: cell-based, mouse; settings: SIINFEKL-loaded BMDCs co-incubated with OT-1 splenocytes
Procedure: Splenocytes of OT-1 mice (H-2^b) were isolated and stained with CellTrace Violet (ThermoFisher). Preconditioned DCs were loaded with ovalbumin peptide SIINFEKL, and co-cultured at a DC:splenocyte ratio of 40,000:120,000 cells for 72 hrs. CD8+ T cell proliferation was measured by the dilution of Cell Trace Violet dye by flow cytometry.

DC IDO = experiment: IDO enzymatic assay (kynurenine HPLC); assay type: cell-based, mouse
Procedure: DC IDO enzyme activity was measured by the conversion of L-tryptophan to L-kynurenine in conditioned media by HPLC (Pallotta et al., 2011). Intracellular hemin levels were measured using a colorimetric assay kit (BioVision).

murine DCs = experiment: qrt-PCR / ELISA gene and cytokine expression in murine DCs; assay type: cell-based; settings: BMDCs, qrt-PCR
Procedure: Total RNA was isolated by RNeasy Plus Mini Kit(Qiagen). RNA(500 ng) was used in cDNA Synthesis (iScript, BioRad). Quantification of mRNA for genes involved in PPARγ signaling was performed using Mouse PrimePCR PPAR Array according to the manufacturer's protocol (BioRad). Real-time PCR was performed using an ABI7500 Real-Time PCR system (Life Technologies). Data analysis utilized the PrimePCR Analysis Software (BioRad). Conventional qPCR was performed using validated primers (Table 1) and SsoAdvanced Universal SYBR Green Super mix (BioRad) or Taqman probes (Applied Biosystems) for heme synthesis enzymes.
Murine IL-6 (eBioscience) and IL-12p40 (Becton Dickinson) ELISAs were performed according to manufacture's protocol.

[5] = test system: BRAFV600EPTEN−/− melanoma; experiment: Syngeneic transplant tumor study; assay type: in vivo, C57BL/6 mice
Procedure: Mouse IFNγ ELISPOTPLUS (MABTECH) was performed according to manufacture guidelines. Imaging was conducted using a ChemiDoc System (BioRad) and quantified using ImageJ software.
Paraffin-embedded tissues were processed and stained following standard protocols and imaged with a Zeiss CLSM 700 confocal microscope. CD8 (BioLegend) and PD-L1 (Abcam) primary antibodies were utilized where indicated. Warp Red chromogen detection system (BioCare) was used for antigen visualization.
BRAFV600EPTEN−/− cells line were established as previously described. 5×10^5 cells were implanted by subcutaneous injection into syngeneic C57 mice. Tumor growth was monitored by caliper measurement. Etomoxir (Sigma, ETO) was administered daily by oral gavage (25 mg/kg/day). Anti-PD-1 rat mAb or rat IgG2a isotype control (BioXCell) was delivered every 3 days by intraperitoneal injection (250 μg/dose).

[6] = test system: autochthonous BRAFV600EPTEN−/− melanoma; experiment: Autochthonous tumor study with adoptively transferred pretreated DCs; assay type: in vivo, transgenic mice
Procedure: B6.Cg-Braftm1Mmcm Ptentm1Hwu Tg(Tyr-cre/ERT2 H-2b)13Bos/BosJ (BRAFV600EPTEN−/−, H-2b), transgenic mice were subdermally injected with 4-HT (Sigma, 38.75 μg/mice) to induce primary melanoma development. Three days prior to 4-HT injection, 1×10^6 cells DCs pretreated with Wnt5a+/−ETO were washed and delivered by intra-dermal injection into the hind leg foot pads every 3-4 days until the conclusion of the experiment. Melanoma growth was monitored by orthagonal caliper measurements every 3-4 days between day 15 to day 32.

BRAFV600EPTEN−/− cells = experiment: Soft agar colony formation assay; assay type: cell-based, mouse; settings: 15 days in presence or absence of ETO
Procedure: Complete growth media—0.7% agar was overlaid with complete growth media—[…] containing 10,000 cells and additional complete growth media. After 2 weeks, colonies were stained with MTT(Sigma) to identify viable colonies and imaged by a ChemiDoc XRSplus system as previously described. Images were analyzed with NIH ImageJ to enumerate colony number.

CPT1a = CPT1a silencing by shRNA-expressing lentiviral vector (qrt-PCR, Western blot); assay type: cell-based, mouse
From the text: The application includes the sequence listing that is concurrently filed in computer readable form. This sequence listing is incorporated by reference herein.
as §2, with “experiments. […]” for “experiments.”
Total RNA was isolated by RNeasy Plus Mini Kit(Qiagen). […] Quantification of mRNA for genes involved in PPARγ signaling was performed using Mouse PrimePCR PPAR Array according to the manufacturer's protocol (BioRad). […]

[7] = DCs pretreated with Wnt5a+/−ETO

Molecule | Wnt5a-induced DC OXPHOS / mitochondrial respiration (OCR) [1] | Wnt5a-induced DC mitochondrial respiration (OCR) [2] | DC viability (BMDCs) | DC-mediated Treg differentiation in vitro, IDO−/− DCs ([3]; DCs derived from IDO−/− mice +/−ETO) | DC-mediated Treg differentiation in vitro ([3]; pre-treated DCs co-cultured with naïve CD4+ T cells) | DC-mediated Treg differentiation in vivo [4] | DC-mediated antigen-specific CD8+ T cell proliferation (OT-1 CD8+ T cells) | TIDC IDO enzyme activity (kynurenine) (DC IDO; TIDCs purified from BRAFV600E-PTEN−/−-NTC tumors) | DC IDO enzymatic activity (kynurenine) (DC IDO; purified DC cultures, Wnt5a or Wnt5a+ETO) | IL-6 and IL-12 expression in primary DCs (murine DCs) | primary melanoma growth, ETO combined with anti-PD-1 antibody ([5]; ETO 25 mg/kg/day oral gavage plus anti-PD-1 250 μg/dose i.p. every 3 days) | primary melanoma progression, monotherapy ([5]; ETO 25 mg/kg/day oral gavage, anti-PD-1 250 μg/dose i.p. every 3 days) | Tregs within draining LN tissues [6, 7] | melanoma-infiltrating CD8+ T cells [6, 7] | primary melanoma progression ([6]; DCs pretreated with Wnt5a+/−ETO transferred to foot pads) | intrinsic proliferative capacity of tumor cells (soft agar colonies) (BRAFV600EPTEN−/− cells) | silencing of mouse CPT1a expression (CPT1a)
CCOC(=O)[C@@]1(CCCCCCOc2ccc(Cl)cc2)CO1 [ETO, etomoxir] | ablate Wnt5a-induced DC OXPHOS; also recorded: completely ablate Wnt5a induction of both murine and human DC mitochondrial respiration; also recorded: abrogates Wnt5a-induced DC OXPHOS | completely ablate Wnt5a induction of both murine and human DC mitochondrial respiration | does not impair DC viability; also recorded: not impacting DC viability | dramatically suppress the ability of IDO^−/− DCs to drive Treg differentiation; also recorded: inhibition of DC-mediated Treg generation extends beyond IDO activity | ablate; also recorded: potently suppress the ability of Wnt5a-conditioned DCs to drive Treg differentiation; also recorded: inhibits Wnt5a-conditioning of DC-mediated Treg development in vitro | ablate; also recorded: potently suppress the ability of Wnt5a-conditioned DCs to drive Treg differentiation; also recorded: inhibits Wnt5a-conditioning of DC-mediated Treg development in vivo | significantly augment in vitro DC-dependent T cell proliferation to levels similar to that of LPS stimulation; also recorded: potently induce DC-mediated T cell activation to levels similar to those seen in response to LPS-treatment of DCs; also recorded: enhances the ability of DCs to induce OT-1 T cell proliferation | lower levels of IDO enzyme activity | completely eliminated this effect; also recorded: reverses Wnt5a-stimulation of DC IDO enzymatic activity | alterations in cytokine expression were further recapitulated | significantly enhanced the anti-tumor efficacy of the anti-PD-1 antibody; also recorded: augments anti-PD-1 antibody suppression | suppresses the progression of BRAF^V600E-PTEN^−/− melanoma similar to anti-PD-1 antibody monotherapy | suppression of Tregs within draining LN tissues | enhanced numbers of melanoma-infiltrating CD8+ T cells | potently suppress primary melanoma progression | has no impact on the intrinsic proliferative capacity of this tumor model | –
SEQ ID NO:1: shRNA sequence for silencing mouse CPT1a (guide CCGGGCTATGGTGTTTCCTACATTACTCGAGTAATGTAGGAAACACCATAGCTTTTTG) | – | – | – | – | – | – | – | – | – | – | – | – | – | – | – | – | effective for silencing the expression of mouse CPT1a
